{
  "source": "patent EP0238060B1",
  "about": "“Cephalosporin derivatives, processes for their preparation and antibacterial agents” (Banyu Pharmaceutical Co., Ltd., priority 1986, dated 1987)",
  "experiment_in_all_cases": "In vitro antibacterial activity, agar plate dilution method (MIC)",
  "key": {"[1]": {"test_system": "P.vulgaris No. 33", "format": "cell-based", "details": "Proteus vulgaris; P.vulgaris No. 33 (β-Lactamase-producing strain); Mueller Hinton agar, inoculum 10⁶ CFU/ml, 37°C, 16 hours; read-out: Minimum Inhibitory Concentration (MIC: µg/ml)", "procedure": "(§1) The in vitro antibacterial activities of the compounds of the present invention against various microorganisms, were measured by the following agar plate dilution method. One platinum loopfull of each test microorganism incubated overnight in Mueller Hinton broth, was inoculated to Mueller Hinton agar (inoculum size: l0⁶ CFU/ml). Such culture media containing various antibiotics in various concentrations were prepared. After incubation at 37°C for l6 hours, the minimum inhibitory concentrations (MIC: µg/ml) were measured. As comparative compounds, Cefotaxime, Ceftazidime and the compounds of Reference Examples l to 4 were employed."}, "[2]": {"test_system": "Ps.aeruginosa IFO3445", "format": "cell-based", "details": "Pseudomonas aeruginosa; Ps.aeruginosa IFO3445; Mueller Hinton agar, inoculum 10⁶ CFU/ml, 37°C, 16 hours; read-out: Minimum Inhibitory Concentration (MIC: µg/ml)", "procedure": "as §1"}, "[3]": {"test_system": "C.freundii GN346", "format": "cell-based", "details": "Citrobacter freundii; C.freundii GN346 (β-Lactamase-producing strain); Mueller Hinton agar, inoculum 10⁶ CFU/ml, 37°C, 16 hours; read-out: Minimum Inhibitory Concentration (MIC: µg/ml)", "procedure": "as §1"}, "[4]": {"test_system": "S.marcescens No. 16-2", "format": "cell-based", "details": "Serratia marcescens, NO.162; S.marcescens No. 16-2 (β-Lactamase-producing strain); Mueller Hinton agar, inoculum 10⁶ CFU/ml, 37°C, 16 hours; read-out: Minimum Inhibitory Concentration (MIC: µg/ml)", "procedure": "as §1"}, "[5]": {"test_system": "E.cloacae Nek 39", "format": "cell-based", "details": "Enterobacter cloacae, NEK39; E.cloacae Nek 39 (β-Lactamase-producing strain); Mueller Hinton agar, inoculum 10⁶ CFU/ml, 37°C, 16 hours; read-out: Minimum Inhibitory Concentration (MIC: µg/ml)", "procedure": "as §1"}, "[6]": {"test_system": "A.calcoaceticus No. 4", "format": "cell-based", "details": "Acinetobacter calcoaceticus; A.calcoaceticus No. 4; Mueller Hinton agar, inoculum 10⁶ CFU/ml, 37°C, 16 hours; read-out: Minimum Inhibitory Concentration (MIC: µg/ml)", "procedure": "as §1"}, "[7]": {"test_system": "M.morganii GN5407", "format": "cell-based", "details": "Morganella morganii; M.morganii GN5407 (β-Lactamase-producing strain); Mueller Hinton agar, inoculum 10⁶ CFU/ml, 37°C, 16 hours; read-out: Minimum Inhibitory Concentration (MIC: µg/ml)", "procedure": "as §1"}, "[8]": {"test_system": "Ps.aeruginosa AK 109", "format": "cell-based", "details": "Pseudomonas aeruginosa, AK109; Ps.aeruginosa AK 109; Mueller Hinton agar, inoculum 10⁶ CFU/ml, 37°C, 16 hours; read-out: Minimum Inhibitory Concentration (MIC: µg/ml)", "procedure": "as §1"}, "[9]": {"test_system": "C.freundii GN346/16", "format": "cell-based", "details": "Citrobacter freundii; C.freundii GN346/16; Mueller Hinton agar, inoculum 10⁶ CFU/ml, 37°C, 16 hours; read-out: Minimum Inhibitory Concentration (MIC: µg/ml)", "procedure": "as §1"}, "[10]": {"test_system": "K.oxytoca GN10650", "format": "cell-based", "details": "Klebsiella oxytoca; K.oxytoca GN10650 (β-Lactamase-producing strain); Mueller Hinton agar, inoculum 10⁶ CFU/ml, 37°C, 16 hours; read-out: Minimum Inhibitory Concentration (MIC: µg/ml)", "procedure": "as §1"}, "[11]": {"test_system": "S.aureus BB5703", "format": "cell-based", "details": "Staphylococcus aureus; S.aureus BB5703; Mueller Hinton agar, inoculum 10⁶ CFU/ml, 37°C, 16 hours; read-out: Minimum Inhibitory Concentration (MIC: µg/ml)", "procedure": "as §1"}, "[12]": {"test_system": "E.coli GN5482", "format": "cell-based", "details": "Escherichia coli; E.coli GN5482 (β-Lactamase-producing strain); Mueller Hinton agar, inoculum 10⁶ CFU/ml, 37°C, 16 hours; read-out: Minimum Inhibitory Concentration (MIC: µg/ml)", "procedure": "as §1"}, "[13]": {"test_system": "P.vulgaris HX-19", "format": "cell-based", "details": "Proteus vulgaris, HX19; P.vulgaris HX-19; Mueller Hinton agar, inoculum 10⁶ CFU/ml, 37°C, 16 hours; read-out: Minimum Inhibitory Concentration (MIC: µg/ml)", "procedure": "as §1"}, "[14]": {"test_system": "S.aureus JS1", "format": "cell-based", "details": "Staphylococcus aureus; S.aureus JS1 (β-Lactamase-producing strain); Mueller Hinton agar, inoculum 10⁶ CFU/ml, 37°C, 16 hours; read-out: Minimum Inhibitory Concentration (MIC: µg/ml)", "procedure": "as §1"}, "[15]": {"test_system": "M.luteus ATCC9341", "format": "cell-based", "details": "Micrococcus luteus; M.luteus ATCC9341; Mueller Hinton agar, inoculum 10⁶ CFU/ml, 37°C, 16 hours; read-out: Minimum Inhibitory Concentration (MIC: µg/ml)", "procedure": "as §1"}, "[16]": {"test_system": "K.pneumoniae No. 42", "format": "cell-based", "details": "Klebsiella pneumoniae; K.pneumoniae No. 42 (β-Lactamase-producing strain); Mueller Hinton agar, inoculum 10⁶ CFU/ml, 37°C, 16 hours; read-out: Minimum Inhibitory Concentration (MIC: µg/ml)", "procedure": "as §1"}, "[17]": {"test_system": "S.epidermidis IAM12012", "format": "cell-based", "details": "Staphylococcus epidermidis; S.epidermidis IAM12012; Mueller Hinton agar, inoculum 10⁶ CFU/ml, 37°C, 16 hours; read-out: Minimum Inhibitory Concentration (MIC: µg/ml)", "procedure": "as §1"}, "[18]": {"test_system": "S.marcescens IAM 1184", "format": "cell-based", "details": "Serratia marcescens, IAM1184; S.marcescens IAM 1184; Mueller Hinton agar, inoculum 10⁶ CFU/ml, 37°C, 16 hours; read-out: Minimum Inhibitory Concentration (MIC: µg/ml)", "procedure": "as §1"}, "[19]": {"test_system": "Ps.aeruginosa AKR17", "format": "cell-based", "details": "Pseudomonas aeruginosa; Ps.aeruginosa AKR17; Mueller Hinton agar, inoculum 10⁶ CFU/ml, 37°C, 16 hours; read-out: Minimum Inhibitory Concentration (MIC: µg/ml)", "procedure": "as §1"}, "[20]": {"test_system": "S.aureus 209P NIHJ-JC1", "format": "cell-based", "details": "Staphylococcus aureus; S.aureus 209P NIHJ-JC1; Mueller Hinton agar, inoculum 10⁶ CFU/ml, 37°C, 16 hours; read-out: Minimum Inhibitory Concentration (MIC: µg/ml)", "procedure": "as §1"}, "[21]": {"test_system": "E.coli CSH2 (RK1)", "format": "cell-based", "details": "Escherichia coli, 16 h, read-out: Minimum Inhibitory Concentration (MIC: µg/ml)", "procedure": "as §1"}, "[22]": {"test_system": "E.cloacae 963", "format": "cell-based", "details": "Enterobacter cloacae; E.cloacae 963; Mueller Hinton agar, inoculum 10⁶ CFU/ml, 37°C, 16 hours; read-out: Minimum Inhibitory Concentration (MIC: µg/ml)", "procedure": "as §1"}, "[23]": {"test_system": "K.pneumoniae PCI-602", "format": "cell-based", "details": "Klebsiella pneumoniae, PCI602; K.pneumoniae PCI-602; Mueller Hinton agar, inoculum 10⁶ CFU/ml, 37°C, 16 hours; read-out: Minimum Inhibitory Concentration (MIC: µg/ml)", "procedure": "as §1"}, "[24]": {"test_system": "E.coli CSH(RE45)", "format": "cell-based", "details": "Escherichia coli, 16 h, read-out: Minimum Inhibitory Concentration (MIC: µg/ml)", "procedure": "as §1"}, "[25]": {"test_system": "E.coli NIHJ JC2", "format": "cell-based", "details": "Escherichia coli, NIHJJC2; E.coli NIHJ JC2; Mueller Hinton agar, inoculum 10⁶ CFU/ml, 37°C, 16 hours; read-out: Minimum Inhibitory Concentration (MIC: µg/ml)", "procedure": "as §1"}, "[26]": {"test_system": "Ps.cepacia 23", "format": "cell-based, Pseudomonas cepacia", "details": "Burkholderia cepacia; Ps.cepacia 23; Mueller Hinton agar, inoculum 10⁶ CFU/ml, 37°C, 16 hours; read-out: Minimum Inhibitory Concentration (MIC: µg/ml)", "procedure": "as §1"}, "[27]": {"test_system": "Ps.maltophilia GN 12873", "format": "cell-based, Pseudomonas maltophilia", "details": "Stenotrophomonas maltophilia, GN12873; Ps.maltophilia GN 12873 (β-Lactamase-producing strain); Mueller Hinton agar, inoculum 10⁶ CFU/ml, 37°C, 16 hours; read-out: Minimum Inhibitory Concentration (MIC: µg/ml)", "procedure": "as §1"}},
  "data": [
    {"smiles": "C#CCON=C(C(=O)NC1C(=O)N2C(C(=O)[O-])=C(C[n+]3ccc4cc(O)c(O)cc4c3)CS[C@H]12)c1csc(N)n1", "note": "(stereo partly drawn) [Ex. 7, 7-[2-(2-aminothiazol-4-yl)-2-(2-propynyloxyimino)acetamido]-3-(6,7-dihydroxy-2-isoquinolio)methyl-3-cephem-4-carboxylate]", "values": [
      {"measurement": "MIC", "setting": "[1]", "value": 0.05, "unit": "µg/mL"},
      {"measurement": "MIC", "setting": "[2]", "value": 0.78, "unit": "µg/mL"},
      {"measurement": "MIC", "setting": "[3]", "value": 50, "unit": "µg/mL"},
      {"measurement": "MIC", "setting": "[4]", "value": 1.56, "unit": "µg/mL"},
      {"measurement": "MIC", "setting": "[5]", "value": 0.2, "unit": "µg/mL"},
      {"measurement": "MIC", "setting": "[6]", "value": 0.2, "unit": "µg/mL"},
      {"measurement": "MIC", "setting": "[7]", "value": 0.05, "unit": "µg/mL"},
      {"measurement": "MIC", "setting": "[8]", "value": 0.78, "unit": "µg/mL"},
      {"measurement": "MIC", "setting": "[9]", "value": 0.78, "unit": "µg/mL"},
      {"measurement": "MIC", "setting": "[10]", "value": 1.56, "unit": "µg/mL"},
      {"measurement": "MIC", "setting": "[11]", "value": 6.25, "unit": "µg/mL"},
      {"measurement": "MIC", "setting": "[12]", "value": 0.78, "unit": "µg/mL"},
      {"measurement": "MIC", "setting": "[13]", "value": "< 0.006", "unit": "µg/mL"},
      {"measurement": "MIC", "setting": "[14]", "value": 50, "unit": "µg/mL"},
      {"measurement": "MIC", "setting": "[15]", "value": 0.2, "unit": "µg/mL"},
      {"measurement": "MIC", "setting": "[16]", "value": "< 0.006", "unit": "µg/mL"},
      {"measurement": "MIC", "setting": "[17]", "value": 0.2, "unit": "µg/mL"},
      {"measurement": "MIC", "setting": "[18]", "value": "< 0.006", "unit": "µg/mL"},
      {"measurement": "MIC", "setting": "[19]", "value": 100, "unit": "µg/mL"},
      {"measurement": "MIC", "setting": "[20]", "value": 1.56, "unit": "µg/mL"},
      {"measurement": "MIC", "setting": "[21]", "value": "< 0.006", "unit": "µg/mL"},
      {"measurement": "MIC", "setting": "[22]", "value": 0.0125, "unit": "µg/mL"},
      {"measurement": "MIC", "setting": "[23]", "value": "< 0.006", "unit": "µg/mL"},
      {"measurement": "MIC", "setting": "[24]", "value": 0.05, "unit": "µg/mL"},
      {"measurement": "MIC", "setting": "[25]", "value": 0.2, "unit": "µg/mL"},
      {"measurement": "MIC", "setting": "[26]", "value": 0.1, "unit": "µg/mL"},
      {"measurement": "MIC", "setting": "[27]", "value": "> 100", "unit": "µg/mL"}
    ]}
  ]
}
